According to ChEMBL document CHEMBL1201862, “PubChem BioAssay data set” (2004):
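48-hour exposure; five concentrations; linearly interpolated endpoints. GI50 marks 50% less growth.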 Calls of active or inactive are those of the source. No stated cut-off is given here; in the data, active = GI50 up to about 1.1 µM and inactive = higher.

Assays:
Assay in all cases: NCI anticancer screen, dose series, 48 h
SF-268 = system: SF-268
SNB-19 = system: SNB-19
SN12C = system: SN12C
HT-29 = system: HT-29
SK-MEL-2 = system: SK-MEL-2
OVCAR-4 = system: OVCAR-4
OVCAR-3 = system: OVCAR-3
K562 = system: K562
SK-MEL-28 = system: SK-MEL-28
COLO 205 = system: COLO 205
KM12 = system: KM12
U-251 = system: U-251
OVCAR-8 = system: OVCAR-8
CAKI-1 = system: CAKI-1
A549 = system: A549
IGROV-1 = system: IGROV-1
LOX IMVI = system: LOX IMVI
786-0 = system: 786-0

Measured: GI50

O=C(CC(=O)c1ccccc1)CC(O)(c1ccccc1)c1ccccc1
inactive: SF-268 6.9 µM | SNB-19 3.92 µM | SN12C 4.99 µM | HT-29 10.4 µM | SK-MEL-2 9.95 µM | OVCAR-4 3.13 µM | OVCAR-3 4.84 µM | K562 2.47 µM | SK-MEL-28 13.1 µM | COLO 205 10.5 µM | KM12 7.76 µM | U-251 3.32 µM | OVCAR-8 5.26 µM | CAKI-1 2.9 µM

CC(C)Cc1ccc(C(C)C(=O)N2CCN(/C=C/c3ccccc3)CC2)cc1 (stereo unspecified)
inactive: SF-268 16.3 µM | SNB-19 2.79 µM | SN12C 15.8 µM | A549 11.5 µM | HT-29 14.7 µM | IGROV-1 15.1 µM | SK-MEL-2 13.6 µM | OVCAR-4 11.9 µM | OVCAR-3 12.9 µM | K562 5.58 µM | SK-MEL-28 17.7 µM | COLO 205 15.4 µM | KM12 15.5 µM | U-251 12.9 µM | LOX IMVI 18.7 µM | OVCAR-8 14.5 µM

CC(=O)OCCOCNC(=S)N/N=C(\C)c1cnc2ccccc2n1
inactive: SF-268 10.4 µM | SNB-19 99.3 µM | SN12C 50.4 µM | A549 26.6 µM | HT-29 29.6 µM | IGROV-1 42 µM | SK-MEL-2 33.3 µM | OVCAR-4 57.1 µM | OVCAR-3 16.8 µM | K562 43.4 µM | SK-MEL-28 43.6 µM | COLO 205 20.1 µM | KM12 46.5 µM | U-251 29.1 µM | LOX IMVI 38.6 µM | OVCAR-8 33.9 µM | 786-0 39.7 µM

O=c1cc[nH]c2c1ccc1ncccc12
inactive: SF-268 > 100 µM | SNB-19 > 100 µM | SN12C > 100 µM | A549 > 100 µM | HT-29 > 100 µM | IGROV-1 > 100 µM | SK-MEL-2 > 100 µM | OVCAR-4 > 100 µM | OVCAR-3 > 100 µM | K562 > 100 µM | SK-MEL-28 > 100 µM | COLO 205 > 100 µM | KM12 > 100 µM | U-251 > 100 µM | LOX IMVI > 100 µM | OVCAR-8 > 100 µM | 786-0 > 100 µM

COC1(Cc2ccccc2)C(=O)c2ccccc2N1C(C)=O (stereo unspecified)
inactive: SNB-19 > 100 µM | SN12C > 100 µM | A549 > 100 µM | HT-29 > 100 µM | IGROV-1 > 100 µM | SK-MEL-2 > 100 µM | OVCAR-4 > 100 µM | OVCAR-3 > 100 µM | K562 > 100 µM | SK-MEL-28 > 100 µM | COLO 205 > 100 µM | KM12 > 100 µM | U-251 > 100 µM | OVCAR-8 > 100 µM | 786-0 > 100 µM | CAKI-1 > 100 µM

COc1ccc(C=O)c(NC(=O)C(C)C)c1
inactive: SF-268 36.2 µM | SNB-19 72.1 µM | SN12C 23 µM | A549 27.2 µM | HT-29 66.7 µM | IGROV-1 > 100 µM | SK-MEL-2 37.6 µM | OVCAR-4 27 µM | OVCAR-3 30.5 µM | K562 31 µM | SK-MEL-28 69.2 µM | COLO 205 18.2 µM | KM12 > 10 µM | U-251 77.1 µM | LOX IMVI 31.7 µM | OVCAR-8 30.8 µM | 786-0 74.6 µM

CCOc1ccc(C2=C(Cl)c3cc(OC)c(OC)cc3C2Cl)cc1 (stereo unspecified)
inactive: SF-268 59.6 µM | SNB-19 > 100 µM | SN12C 42.4 µM | HT-29 32.1 µM | IGROV-1 72.4 µM | SK-MEL-2 23.1 µM | OVCAR-3 59 µM | K562 > 10 µM | SK-MEL-28 87.5 µM | COLO 205 63.5 µM | U-251 18.2 µM | LOX IMVI 19.5 µM | OVCAR-8 36.4 µM | CAKI-1 46.1 µM
